The text below walks through data of ChEMBL document CHEMBL5543059, “Discovery of anti-inflammatory natural flavonoids: Diverse scaffolds and promising leads for drug discovery” (Eur J Med Chem, 2023).

Test [1] has as its system BV-2. The test can be described thus: Anti-inflammatory activity against mouse BV-2 cells assessed as inhibition of LPS-induced IL-1beta secretion at 25 uM pretreated for 2 hrs followed stimulated with LPS for 22 hrs by ELISA analysis relative to control. Type of test: functional. Further details: scale not given: the % may be the effect or the level left. As to conditions: time 24 hrs.

In test [2] the test system is Rattus norvegicus. As to the kind of experiment: Antiinflammatory activity in LPS-induced Sprague-Dawley rat assessed as reduction in IL-1beta production in plasma at 20 mg/kg, ip pretreated for 30 mins followed by LPS induction measured after 4 hrs by ELISA method relative to control. The format is functional. Further details: scale not given: the % may be the effect or the level left. As to conditions: time 4.5 hrs.

For test [3], the system named is Rattus norvegicus. The test can be described thus: Antiinflammatory activity in LPS-induced Sprague-Dawley rat assessed as reduction in TNFalpha production in plasma at 20 mg/kg, ip pretreated for 30 mins followed by LPS induction measured after 4 hrs by ELISA method relative to control. The format is functional. Further details: scale not given: the % may be the effect or the level left. As to conditions: time 4.5 hrs.

In test [4] the test system is RAW264.7. The test can be described thus: Antiinflammatory activity in LPS-induced mouse RAW264.7 cells assessed as reduction in TNFalpha production pretreated for 30 mins followed by LPS induction measured after 2 hrs by ELISA method. The format is functional, cell-based.
In test [5] the test system is J774.A1. As to the kind of experiment: Antiinflammatory activity in LPS-induced mouse J774.A1 cells assessed as reduction in TNFalpha production pretreated for 30 mins followed by LPS induction measured after 2 hrs by ELISA method. The format is functional, cell-based. On the technique in general: ELISA stands for enzyme-linked immunosorbent assay.
Test [6] concerns RAW264.7. The test can be described thus: Antiinflammatory activity in LPS-induced mouse RAW264.7 cells assessed as reduction in IL-1beta production pretreated for 30 mins followed by LPS induction measured after 2 hrs by ELISA method. The format is functional, cell-based.
The subject of test [7] is J774.A1. The test can be described thus: Antiinflammatory activity in LPS-induced mouse J774.A1 cells assessed as reduction in IL-1beta production pretreated for 30 mins followed by LPS induction measured after 2 hrs by ELISA method. Type of test: functional, cell-based.
Test [8] deals with BV-2. As to the kind of experiment: Antiinflammatory activity in mouse BV-2 cells assessed as reduction in LPS-induced NO production pre-treated with compound for 1 hr followed by stimulated with LPS for 18 hrs by 2,3-diaminonaphthalene reagent based fluorescence analysis. The format is functional, cell-based.
A further test concerns Peritoneal macrophage. As to the kind of experiment: Antiinflammatory activity in mouse peritoneal macrophages assessed as reduction in LPS-induced TNFalpha level at 20 uM incubated for 4 hrs by ELISA method relative to control. Type of test: functional. Further details: scale not given: the % may be the effect or the level left.
Test [9] relates to RAW264.7. As to the kind of experiment: Anti-inflammatory activity in mouse RAW264.7 cells assessed as inhibition of LPS-induced NO production by Griess reagent assay. The format is functional, cell-based. (In general: The Griess reaction detects nitrite, a stable product of nitric oxide.)

With `COc1ccc(-c2cc(=O)c3c(O)cc(OC)c(O)c3o2)cc1`, in the test with BV-2 [1], the Activity was over 50%.
Regarding `COc1cc(O)c(CC=C(C)C)c2oc(=O)cc(-c3ccccc3)c12`, the Activity with Rattus norvegicus [2] came to 55%; in the test on Rattus norvegicus [3] it was 41.8%. Besides, the IC50 (as a rule, the concentration at which inhibition is half-maximal) in the test on RAW264.7 [4] was determined as 21.3 µM; in the test with J774.A1 [5], 20.4 µM; in the test with RAW264.7 [6], 29.2 µM; with J774.A1 [7] it was 38.2 µM.
Consider `O=C1/C(=C/c2ccc(O)c(O)c2)Oc2cc(O)ccc21` [SULFURETIN], for which, in the test with BV-2 [8], the IC50 amounted to 31.4 µM.
As for `Oc1cc(O)c2c(c1)O[C@H](c1cc(O)c(O)c(O)c1)CC2`, the Activity in the test with Peritoneal macrophage turned out to be 22.6%.
For `CC(C)=CCC[C@@]1(C)C=Cc2c(ccc(C(=O)/C=C/c3ccc(O)c(O)c3)c2O)O1`, the IC50 in the test with RAW264.7 [9] is 22.7 µM.
